Experimental data as given in ChEMBL document CHEMBL1201862, “PubChem BioAssay data set” (2004).
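Method: 48-hour compound exposure of cells in 96-well plates, five concentrations, linear interpolation of endpoints. The concentration for 50% growth inhibition is given as GI50.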 Calls of active or inactive are those of the source. No stated cut-off is given here; in the data, active = GI50 up to about 1.1 µM and inactive = higher.

Columns and labels:
Assay in all cases: DTP human tumour cell line panel, 48 h
A498 = tested on: A498
A549 = tested on: A549
CCRF-CEM = tested on: CCRF-CEM
HCC 2998 = tested on: HCC 2998
HCT-116 = tested on: HCT-116
HCT-15 = tested on: HCT-15
HOP-92 = tested on: HOP-92
LOX IMVI = tested on: LOX IMVI
MOLT-4 = tested on: MOLT-4
OVCAR-5 = tested on: OVCAR-5
OVCAR-8 = tested on: OVCAR-8
SF-539 = tested on: SF-539
SK-MEL-28 = tested on: SK-MEL-28
SR = tested on: SR
SK-OV-3 = tested on: SK-OV-3
DU-145 = tested on: DU-145
MCF7 = tested on: MCF7
MDA-MB-435 = tested on: MDA-MB-435
NCI/ADR-RES = tested on: NCI/ADR-RES
PC-3 = tested on: PC-3

| Structure (SMILES) | GI50 (A498) | GI50 (A549) | GI50 (CCRF-CEM) | GI50 (HCC 2998) | GI50 (HCT-116) | GI50 (HCT-15) | GI50 (HOP-92) | GI50 (LOX IMVI) | GI50 (MOLT-4) | GI50 (OVCAR-5) | GI50 (OVCAR-8) | GI50 (SF-539) | GI50 (SK-MEL-28) | GI50 (SR) | GI50 (SK-OV-3) | GI50 (DU-145) | GI50 (MCF7) | GI50 (MDA-MB-435) | GI50 (NCI/ADR-RES) | GI50 (PC-3) |
| --- | --- | --- | --- | --- | --- | --- | --- | --- | --- | --- | --- | --- | --- | --- | --- | --- | --- | --- | --- | --- |
| C/C(CCn1[nH]c(=O)ccc1=O)=N\OCCCc1ccccc1 | > 100 µM (inactive) | > 100 µM (inactive) | > 100 µM (inactive) | > 100 µM (inactive) | > 100 µM (inactive) | > 100 µM | 88.5 µM (inactive) | > 100 µM (inactive) | > 100 µM (inactive) | > 100 µM (inactive) | > 100 µM (inactive) | > 100 µM (inactive) | > 100 µM (inactive) | > 100 µM (inactive) |  |  |  |  |  |  |
| CC(=O)C1=C(O)C(N)C2Cc3c(c(O)c4c(O)c(C)ccc4c3C)C(=O)C2(O)C1=O (stereo not given) | 2.8 µM (inactive) | 1.61 µM (inactive) | 3.24 µM (inactive) | 3.28 µM (inactive) | 1.28 µM (inactive) | 0.774 µM | 1.6 µM (inactive) | 0.973 µM (active) | 1.71 µM (inactive) | 4.46 µM (inactive) | 1.39 µM (inactive) | 1.35 µM (inactive) | 2.06 µM (inactive) | 1.64 µM (inactive) | 3.53 µM (inactive) |  |  |  |  |  |
| O=S(=O)(O)c1ccc([Se][Se]c2ccc(S(=O)(=O)O)cc2)cc1 | > 100 µM (inactive) | > 100 µM (inactive) | > 100 µM (inactive) | > 100 µM (inactive) | > 100 µM (inactive) | > 100 µM | > 100 µM (inactive) | > 100 µM (inactive) | > 100 µM (inactive) | > 100 µM (inactive) | > 100 µM (inactive) | > 100 µM (inactive) | > 100 µM (inactive) | 27.9 µM (inactive) | > 100 µM (inactive) |  |  |  |  |  |
| Cc1ccc(S(=O)(=O)N2CCSCCSCCSCCN(S(=O)(=O)c3ccc(C)cc3)CC2)cc1 | > 100 µM (inactive) | > 100 µM (inactive) |  | > 100 µM (inactive) | > 100 µM (inactive) |  | > 100 µM (inactive) |  | > 100 µM (inactive) | > 100 µM (inactive) | > 100 µM (inactive) | > 100 µM (inactive) | > 100 µM (inactive) |  | > 100 µM (inactive) | > 100 µM (inactive) | > 100 µM (inactive) | > 100 µM (inactive) | > 100 µM (inactive) |  |
| Nc1nc(N)c2nc(CNc3ccc(C(=O)NC(CCC(=O)O)C(=O)O)cc3F)cnc2n1 (stereo not given) | < 0.01 µM (active) | < 0.01 µM (active) | < 0.01 µM (active) |  | < 0.01 µM (active) | < 0.01 µM |  | < 0.01 µM (active) | < 0.01 µM (active) | > 100 µM (inactive) | < 0.01 µM (active) | < 0.01 µM (active) | > 100 µM (inactive) | < 0.01 µM (active) | > 100 µM (inactive) | < 0.01 µM (active) | < 0.01 µM (active) | < 0.01 µM (active) | < 0.01 µM (active) |  |
| CSc1ccc(/C=C2\CN(C)C/C(=C\c3ccc(SC)cc3)C2=O)cc1 | 46.8 µM (inactive) | > 100 µM (inactive) | 23.1 µM (inactive) | 79.4 µM (inactive) | 20.4 µM (inactive) | 32 µM | 4.23 µM (inactive) | 6.47 µM (inactive) | 19.4 µM (inactive) | > 100 µM (inactive) | 13.5 µM (inactive) | 20 µM (inactive) | > 100 µM (inactive) | 7.57 µM (inactive) | 30.8 µM (inactive) |  |  |  |  |  |
| Fc1ccc(/N=C2C=C/C(=N\c3ccc(F)cc3)c3ccccc3\2)cc1 | > 100 µM (inactive) | > 100 µM (inactive) | > 100 µM (inactive) | > 100 µM (inactive) | > 100 µM (inactive) | > 100 µM | 19.4 µM (inactive) | > 100 µM (inactive) | > 100 µM (inactive) | > 100 µM (inactive) | > 100 µM (inactive) | 54.1 µM (inactive) | > 100 µM (inactive) | > 100 µM (inactive) | > 100 µM (inactive) |  |  |  |  |  |
| c1ccc2c(c1)[nH]c1c2nc2ncccn21 | > 100 µM (inactive) | > 100 µM (inactive) | > 100 µM (inactive) | > 100 µM (inactive) | > 100 µM (inactive) |  | > 100 µM (inactive) |  | > 100 µM (inactive) | > 100 µM (inactive) | > 100 µM (inactive) | > 100 µM (inactive) | > 100 µM (inactive) | > 100 µM (inactive) | > 100 µM (inactive) |  |  |  |  |  |
| COC(=O)c1ccccc1C1CN=NC12Cc1cccc(C)c1C2=O (stereo not given) | 54.6 µM (inactive) | 39.3 µM (inactive) | 52.7 µM (inactive) | > 100 µM (inactive) | 37.4 µM (inactive) | 46.5 µM | 25.5 µM (inactive) | 55 µM (inactive) | 32.8 µM (inactive) | > 100 µM (inactive) | 42.4 µM (inactive) | > 100 µM (inactive) | 68.2 µM (inactive) | 94.4 µM (inactive) | > 100 µM (inactive) | > 100 µM (inactive) | 43 µM (inactive) | 37.4 µM (inactive) | 9.84 µM (inactive) |  |
| COC(=O)C1=CC(O)CCC1c1ccc(OC)cc1 (stereo not given) | > 100 µM (inactive) | > 100 µM (inactive) | > 100 µM (inactive) | > 100 µM (inactive) | > 100 µM (inactive) | > 100 µM | > 100 µM (inactive) | > 100 µM (inactive) | > 100 µM (inactive) | > 100 µM (inactive) | > 100 µM (inactive) | > 100 µM (inactive) | > 100 µM (inactive) | > 100 µM (inactive) | > 100 µM (inactive) |  |  |  |  |  |
| Cc1cc(O)c(C=O)c(C)c1CCC1(C)C=Cc2cc(O)ccc2O1 (stereo not given) | 39.8 µM (inactive) | 35.9 µM (inactive) | 17.1 µM (inactive) | 29.4 µM (inactive) | 16.8 µM (inactive) | 22.9 µM | 22.2 µM (inactive) | 19.6 µM (inactive) | 18.4 µM (inactive) | 30.5 µM (inactive) | 17.1 µM (inactive) | 18.3 µM (inactive) | 22.7 µM (inactive) | > 100 µM (inactive) | 23.9 µM (inactive) |  |  |  |  |  |
| CS/C(=N\c1ccc([N+](=O)[O-])cc1C#N)NC(=O)c1ccccc1 | > 100 µM (inactive) | > 100 µM (inactive) | > 100 µM (inactive) | > 100 µM (inactive) | > 100 µM (inactive) | > 100 µM | 46 µM (inactive) | 95.3 µM (inactive) | 54.2 µM (inactive) | > 100 µM (inactive) | > 100 µM (inactive) | > 100 µM (inactive) | > 100 µM (inactive) | > 100 µM (inactive) |  |  |  |  |  |  |
| C1=C(c2ccccc2)C(OC2Oc3ccccc3C=C2c2ccccc2)Oc2ccccc21 (stereo not given) | > 100 µM (inactive) | > 100 µM (inactive) | > 100 µM (inactive) | > 100 µM (inactive) | > 100 µM (inactive) | > 100 µM | > 100 µM (inactive) | > 100 µM (inactive) | > 100 µM (inactive) | > 100 µM (inactive) | > 100 µM (inactive) |  | > 100 µM (inactive) | 33.6 µM (inactive) | > 100 µM (inactive) |  |  |  |  |  |
| CCOC(=O)/C=C1\Nc2ccccc2-n2nnnc21 | > 100 µM (inactive) | > 100 µM (inactive) | > 100 µM (inactive) | > 100 µM (inactive) | > 100 µM (inactive) | > 100 µM | > 100 µM (inactive) | > 100 µM (inactive) | > 100 µM (inactive) | > 100 µM (inactive) | > 100 µM (inactive) | > 100 µM (inactive) | > 100 µM (inactive) | > 100 µM (inactive) | > 100 µM (inactive) |  |  |  |  |  |
| NNc1cnn(-c2ccccc2)c(=O)c1Cl | > 100 µM (inactive) | > 100 µM (inactive) | > 100 µM (inactive) |  | > 100 µM (inactive) | > 100 µM | > 100 µM (inactive) | > 100 µM (inactive) | > 100 µM (inactive) | > 100 µM (inactive) | > 100 µM (inactive) | > 100 µM (inactive) | > 100 µM (inactive) | > 100 µM (inactive) | > 100 µM (inactive) |  |  |  |  |  |
| Fc1ccc(F)c(C2SCc3nc4ccccc4n32)c1 (stereo not given) | 43.8 µM (inactive) | 71.4 µM (inactive) | 47.6 µM (inactive) | > 100 µM (inactive) | 61 µM (inactive) | 71.1 µM | 28.5 µM (inactive) | 65.6 µM (inactive) | 27.2 µM (inactive) | > 100 µM (inactive) | > 100 µM (inactive) | > 100 µM (inactive) |  | 43.9 µM (inactive) | > 100 µM (inactive) |  |  |  |  |  |
| Cc1csc2nc3c(cnn3C)c(=S)n12 |  | > 100 µM (inactive) | 87.7 µM (inactive) | > 100 µM (inactive) | > 100 µM (inactive) | 71.4 µM |  | 51.6 µM (inactive) | > 100 µM (inactive) | > 100 µM (inactive) | > 100 µM (inactive) | > 100 µM (inactive) | > 100 µM (inactive) | > 100 µM (inactive) | 61.8 µM (inactive) |  | > 100 µM (inactive) | > 100 µM (inactive) | > 100 µM (inactive) | > 100 µM (inactive) |
| COC(=O)C1C2C=CC(C2)N1[C@@H](C)c1ccccc1 (stereo not given in full) | > 100 µM (inactive) | > 100 µM (inactive) | > 100 µM (inactive) | > 100 µM (inactive) | > 100 µM (inactive) | > 100 µM | > 100 µM (inactive) | > 100 µM (inactive) |  | > 100 µM (inactive) | > 100 µM (inactive) | > 100 µM (inactive) | > 100 µM (inactive) | > 100 µM (inactive) | > 100 µM (inactive) |  |  |  |  |  |
